What was measured:
[1] = system: Mouse TCRP1A CD8+ T cells; experiment: CD107 cytotoxicity assay (degranulation assay), mouse T cells; type: cell-based; details: alprenolol 5 μM or 20 μM, 16 hours, vs control (PBS); FIG. 11A
Method: Mouse TCRP1A CD8^+ T cells: P1A-specific (TCRP1A) CD8^+ T cells were isolated from spleens and lymph nodes of TCRP1A mice using anti-mouse CD8a (Ly-2) MicroBeads (Miltenyi Biotec).
CD107 cytotoxicity assay (Degranulation assay): TCRP1A CD8^+ T cells were plated at 50,000 cells per well in a 96 U plate with different concentrations of guanabenz and incubated at 37° C. overnight prior to their use in the assay on the next day. On the day of the assay, the culture supernatant was removed from the cells and the cells were washed once with complete medium to remove the drug. The target cells L1210-P1A-B7.1 were added to the wells at a ratio of 1:1. Control wells containing either only T cells or target cells were also included for each plate. CD107a-APC was added to each well at the same time as addition of the target cells. The plate was then incubated at 37° C. for 90 minutes. At the end of the incubation period the cells were harvested and washed once with PBS. They were stained with anti-mouse CD8-Bv421 antibody for 15 minutes. The cells were then washed and resuspended in PBS and analyzed using FACS Fortessa flow cytometer. Human CD8^+ T cell degranulation was evaluated in a similar way. To induce CD8^+ T cell degranulation, T2 cells loaded with synthetic WT1126-134 peptide (10^6 T2 cells were incubated for 1 hour in 200 μL Optimem medium with 100 μmol/L synthetic peptide at 37° C.) were used as target cells.
(§1) T cells were incubated with guanabenz (10, 20, or 40 μM) for 16 h to 24 h as indicated. Mice received a daily intra-peritoneal injection of guanabenz (5 mg/kg) or vehicle (PBS) from the day of randomization (and the day of ACT when applicable) until the day of sacrifice.
CD107 cytotoxicity assay (Degranulation assay): the assay was carried out as described hereinabove (see Example 1) with different 20 μM guanabenz or different concentrations of alprenolol or sunitinib, as indicated.
T cells were incubated with 20 μM guanabenz for 16 h as indicated.
T cells were incubated with alprenolol (5 or 20 μM) for 16 h as indicated. […]

TiRP tumor = experiment: TiRP melanoma model with adoptive cell transfer of activated P1A-specific CD8+ T cells; type: in vivo, mouse; details: alprenolol 5 mg/kg i.p. daily with ACT
Excerpt: TiRP mice: TiRP mice have been created by crossing Ink4a/Arf^flox/flox mice with mice carrying a transgenic construct controlled by the tyrosinase promoter and driving the expression of H-Ras^12V and Trap1a which encodes a MAGE-type tumor antigen P1A; the promoter is separated from the coding region by a stop cassette made of a floxed self-deleting CreER (Huijbers et al., 2006, Cancer Res 66, 3278-3286). Those mice were backcrossed to a B10.D2 background and bred to homozygosity. TCRP1A mice heterozygous for the H-2Ld/P1A35-43-specific TCR transgene were kept on the B10.D2; Rag1^−/− background (Shanker et al., 2004, J Immunol 172, 5069-5077). All mice used in this study were produced under specific pathogen free (SPF) conditions at the animal facility of the Ludwig Institute for Cancer Research. All the rules concerning animal welfare have been respected according to the 2010/63/EU Directive. All procedures were performed with the approval of the local Animal Ethical Committee, with reference 2015/UCL/MD/15.
A fresh solution of 40H-Tamoxifen was prepared by dissolving 40H-Tamoxifen (Imaginechem) in 100% ethanol and mineral oil (ratio 1:9) followed by 30-min sonication, and injected subcutaneously (2 mg/200 μL per mouse) in the neck area of gender-matched 7 weeks old TiRP mice. Tumor appearance was monitored daily and tumors were measured three times/week. Tumor volume (in mm^3) was calculated by the following formula: Volume=width^2×length/2. Tumor-bearing TiRP mice were randomized based on the tumor size when average volume was 400 mm^3, 500 mm^3 or 1000 mm^3 as indicated.
as §1
For the adoptive cell transfer (ACT), P1A-specific (TCRP1A) CD8^+ T cells were isolated from spleens and lymph nodes of TCRP1A mice as described hereinabove, and stimulated in vitro by co-culture with irradiated (10.000 rads) L1210-P1A-B7.1 cells (Gajewski et al., 1995, J Immunol 154, 5637-5648) at 1:2 ratio (0.5×10^5 CD8^+ T cells and 10^5 L1210-P1A-B7.1 cells per well in 48-well plates) in IMDM (GIBCO) containing 10% fetal bovine serum supplemented with L-arginine (0.55 mM, Merck), L-asparagine (0.24 mM, Merck), glutamine (1.5 mM, Merck), betamercaptoethanol (50 μM, Sigma), 50 UmL^−1 penicillin and […] (Life Technologies). Four days later, TCRP1A CD8^+ T cells were purified on a Lymphoprep gradient (StemCell) and 10^7 living cells were injected intravenously in 200 μL PBS in TiRP-tumor bearing mice on the day of randomization.
Mice received a daily intra-peritoneal injection of alprenolol (5 mg/kg) or vehicle (PBS) from the day of ACT until the day of sacrifice.
T cells were incubated with sunitinib (0.1, 0.3, 0.8, 2.5 or 4 μM) for 16 h as indicated. Mice received a daily dose of sunitinib (20 mg/kg) or vehicle (PBS) by oral gavage from the day of ACT until the day of sacrifice.

SMILES: C=CCc1ccccc1OCC(O)CNC(C)C (stereo not drawn) [alprenolol]
- T cell degranulation (FACS detection of CD107a) [1]: did no significantly increase
- tumor infiltration of CD8+ T cells (tetramer+ CD8+ T cells among total CD45+ cells) (TiRP tumor; 7 days after ACT, FIG. 11C): not increased
- tumor growth (TiRP tumor; day 0 to day 10, vs ACT alone, FIG. 11B): not significantly decreased

Source: patent US20210353749A1, “GUANABENZ AS AN ADJUVANT FOR IMMUNOTHERAPY” (UNIVERSITÉ CATHOLIQUE DE LOUVAIN, priority 2018, published 2021)
